In patent US12234254B2, “Methods for producing crystalline L-glufosinate ammonium monohydrate” (BASF SE, priority 2019, dated 2025):

Experiments:
[1] = Particle size measurement (Dv90, volumetric distribution); format: physicochemical
Excerpt: The size range of crystalline L-glufosinate ammonium monohydrate particles obtained by using the methods provided herein is convenient for use in formulations. In some embodiments, the crystals are mixed with water and other formulation ingredients to form an herbicidal product. In some embodiments, 90% of the crystalline L-glufosinate ammonium particles are less than about 350 microns as determined by volumetric distribution measurement basis (i.e., “Dv90”). For example, the Dv90 of the particles can be less than about 350 microns or less than about 300 microns or less than about 250 microns or less than about 200 microns or less than about 150 microns or less than about 125 microns or less than about 100 microns or less than about 75 microns or less than about 50 microns or less than about 25 microns. […]
L-glufosinate ammonium starting material (50 g, 77% total L-glufosinate ammonium, 7.3% ammonium glutamate) was added to 35.0 g of 45:55 (w:w) methanol:water. […] The crystals were analyzed by X-ray powder diffraction and the resulting pattern was consistent with that of L-glufosinate ammonium monohydrate Form B, however several peaks consistent with L-glufosinate ammonium monohydrate Form A were present.

[2] = Hygroscopicity of solid L-glufosinate forms in contact with ambient air; format: physicochemical; settings: contact with ambient air in the laboratory; compared with non-crystalline forms
Excerpt: L-glufosinate produced in a stable solid form is highly desirable for commercial manufacture. Some forms of solid L-glufosinate are hygroscopic, and therefore extra measures must be taken to eliminate contact between these solid L-glufosinate forms and water vapor. […] Several crystalline forms of L-glufosinate are disclosed in WO 2019/018406, and two of these forms (indicated as “Form A” and “Form B”) have now been identified as monohydrate crystals of L-glufosinate ammonium.

[3] = system: glutamine synthetase enzyme in plants; settings: leads to plant death; cited from earlier work
plants = settings: Ruhland et al. (2002); cited from earlier work
[4] = DAAO enzyme kinetics assay (HRP/TBHBA/4-AAP dye, Michaelis Menten, Vmax); format: biochemical; settings: 30° C., 460 nm, measurement at 15 minutes, final DAAO 5 μg/mL, racemic glufosinate substrate, pH 8.0 potassium phosphate buffer
Experimental: The following dye stock solutions were prepared: a 20 mg/mL stock solution of 2,4,6-tribromo-3-hydroxybenzoic acid (TBHBA) in DMSO; and a 100 mg/mL stock solution of 4-aminoantipyrine (4-AAP) in water. The following enzyme stock solution was prepared: a 1 mg/mL stock solution of horseradish peroxide (HRP) type 6 in a pH 8.0 potassium phosphate buffer. The following substrate stock solution was prepared: varying concentrations of racemic glufosinate in a pH 8.0 potassium phosphate buffer such that the initial reaction concentrations of racemic glufosinate were 0, 1, 10, 100, 250, and 500 nM. DAAO enzymes were made in E. coli which were lysed and the cell free extracts freeze dried. Enzyme amounts in the cell free extracts were quantified using SDS-PAGE and staining by Coomassie Blue.
Mix A is a combination of the substrate and HRP enzyme. Solutions were prepared for each substrate concentration to be assayed using reaction buffer. The solutions were two times the final substrate concentration and 0.2 mg/mL for the HRP solution.
Mix B is a dye mixture. To 5 mL of reaction buffer was added 120 μL of TBHBA solution and 400 μL of 4-AAP solution.
Mix C is an enzyme mixture. A 0.02 mg/mL solution of DAAO in reaction buffer was prepared. […]
The enzyme kinetics were measured as described above, plotted on a Michaelis Menten graph, and used to calculate Vmax.

`CP(=O)(O)CC[C@H](N)C(=O)O.N.O` [L-glufosinate ammonium monohydrate] showed a Dv90 particle size ([1]; Example 9, crystallized with 0.4 M ammonium hydroxide) of 70.7 microns and a Dv90 particle size ([1]; Example 10, crystallized without ammonium hydroxide) of 102 microns.

In the case of `CP(=O)(O)CC[C@H](N)C(=O)O` [amorphous L-glufosinate solids, L-glufosinate], the hygroscopicity [2] is reported as “particularly hygroscopic”.

With `CP(=O)(O)CC[C@H](N)C(=O)O.N.O` [Form A, L-glufosinate ammonium monohydrate] the hygroscopicity [2] was “low hygroscopicity”.

For `CP(=O)(O)CC[C@H](N)C(=O)O` [L-glufosinate], the “inhibition of glutamine synthetase enzyme” value [3] is listed as “inhibits”.

In the case of `CP(=O)(O)CC[C@@H](N)C(=O)O` [D-glufosinate], the herbicidal activity (plants) is listed as “essentially no herbicidal activity”.

With `CP(=O)(O)CC[C@H](N)C(=O)O` [crystalline L-glufosinate P free acid, L-glufosinate P free acid] the hygroscopicity [2] was “significantly lower”.

B1: Mut846: variant DAAO enzyme, sequence provided in SEQ ID NO: 2 (protein)
chain: MASPSNKQIVVLGAGVIGLTTAVKIQEQRGYQVTIIAEILPSDPKSIRYTSHWAGAHHVSLAGEDKLQARVDQETFGVMWEMSAPGGEAEGCFLRQKQVEYYCDKQADPHPLEHMPDFRRLDENSLIPNTVAGIGFTTLTIDTPIYLNYLLSRFLARGGAIVRGSVQHISQVVDGGARVFTGSKSAGVPVDAVIVCAGIGARFLGGVEDKDVYPIRGQTVLLRAPWIRFGRTMSSKDGLYTYIIPRRSGDVIVGGIKVPNDWYPTPRPETTQDILKRGLALCPELAPQSIRDQREPTVDDLRPLVIEEGCGLRPGRKGGIRLEVEWYAKTDGQAPKVPIVHNYGHGGAGFQASWGSASVALELLEKALAQARLAM
modifications: Rhodosporidium toruloides
Molecule B1 has a Vmax [4] of 5.54 µmol/min/mg.
